From US8937067B2, “Activators of human pyruvate kinase” (The United States of America, as represented by the …, priority 2008, dated 2015)
Where two headings read alike, the source gives them in different places.

Molecular target: hPK-M2 (Homo sapiens, UniProt P14618)
Assay: Luminescent pyruvate kinase-luciferase coupled assay (KinaseGlo)
Assay type: biochemical
Details: for activation at 57 µM / hPK, M2 Max. Res.: KinaseGlo, % activation at 57 μM of compound; for activation at 57 µM: read-out: hPK, M2 Max. Res.
Protocol: Luminescent Pyruvate Kinase-Luciferase Coupled Assay.
Production of a luminescent signal based on the generation of ATP by pyruvate kinase was determined by using the ATP-dependent enzyme firefly luciferase. Three μL of substrate mix (at r.t.) in assay buffer (50 mM imidazole pH 7.2, 50 mM KCl, 7 mM MgCl2, 0.01% tween 20, 0.05% BSA) was dispensed into Kalypsys white solid bottom 1,536 well microtiter plates using a bottle-valve solenoid-based dispenser (Kalypsys). The final concentrations of substrates in the assay were 0.1 mM ADP and 0.5 mM PEP. […] Microtiter plates were incubated at r.t. for 1 hour and 2 uL of luciferase detection mix (Kinase-Glo, Promega at 4° C. protected from light) was added and luminescence was read with a ViewLux (Perkin Elmer) using a 5 second exposure/plate. Data was normalized for AC50 values to control columns containing uninhibited enzyme (n), and AC100 inhibition (i) according the following equation: Activation (%)=[(c−n)/(n−i)]*100 where c=compound, n=DMSO neutral, i=no enzyme control. […] Monitoring of activation was accomplished using enzyme at 3× the final concentration.

[1] = luminescent pyruvate kinase-luciferase coupled assay (KinaseGlo), tables, read-out: hPK, M2 AC50

hPK-M2, sequence (P14618 whole entry): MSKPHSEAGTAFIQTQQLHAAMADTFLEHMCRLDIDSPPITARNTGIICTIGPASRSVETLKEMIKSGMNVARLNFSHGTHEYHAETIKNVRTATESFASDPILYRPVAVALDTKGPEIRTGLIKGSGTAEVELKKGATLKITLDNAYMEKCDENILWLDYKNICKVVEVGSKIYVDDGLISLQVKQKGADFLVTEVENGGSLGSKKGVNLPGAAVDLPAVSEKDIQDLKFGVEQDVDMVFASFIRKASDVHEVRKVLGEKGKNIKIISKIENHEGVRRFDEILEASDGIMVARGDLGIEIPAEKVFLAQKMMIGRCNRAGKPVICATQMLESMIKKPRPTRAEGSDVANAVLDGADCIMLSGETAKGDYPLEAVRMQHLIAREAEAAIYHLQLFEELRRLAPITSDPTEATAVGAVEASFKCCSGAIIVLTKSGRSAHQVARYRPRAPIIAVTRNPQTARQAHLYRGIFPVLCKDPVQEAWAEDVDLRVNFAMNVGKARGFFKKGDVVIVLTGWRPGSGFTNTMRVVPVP

SMILES | activation at 57 µM | AC50 [1] | PKM2 activation, result in words | hPK, M2 Max. Res. | AC50 (luciferase-coupled assay, read-out: AC50)
O=S(=O)(c1c(F)cccc1F)C1CCN(S(=O)(=O)c2ccc3c(c2)OCCO3)CC1 [Compound 20, 4-(2,6-difluorophenylsulfonyl)-1-(2,3-dihydrobenzo[b][1,4]dioxin-6-ylsulfonyl)piperidine] | 104 ± 5.1% | 254 nM | – | – | –
CCCc1cc(F)c(S(=O)(=O)N2CCN(S(=O)(=O)c3ccc4c(c3)OCCO4)CC2)cc1F [Compound 12, 1-(2,5-difluoro-4-propylphenylsulfonyl)-4-(2,3-dihydrobenzo[b][1,4]dioxin-6-ylsulfonyl)piperazine] | 69.2 ± 10.4% | 757 nM | diminished activity | – | –
O=S(=O)(c1cccc(C(F)(F)F)c1)N1CCN(S(=O)(=O)c2ccc3c(c2)OCCO3)CC1 [Compound 16, 1-(2,3-dihydrobenzo[b][1,4]dioxin-6-ylsulfonyl)-4-(3-(trifluoromethyl)phenylsulfonyl)piperazine] | 39.3 ± 6.2% | 209 nM | – | – | –
C[C@H]1CN(S(=O)(=O)c2c(F)cccc2F)CCN1S(=O)(=O)c1ccc2c(c1)OCCO2 [Compound 45, (S)-4-(2,6-difluorophenylsulfonyl)-1-(2,3-dihydrobenzo[b][1,4]dioxin-6-ylsulfonyl)-2-methylpiperazine] | 109 ± 9.4% | 4340 ± 740 nM | – | – | –
O=S(=O)(c1ccc2c(c1)OCCO2)C1CCN(S(=O)(=O)c2c(F)cccc2F)CC1 [Compound 30, 1-(2,6-difluorophenylsulfonyl)-4-(2,3-dihydrobenzo[b][1,4]dioxin-6-ylsulfonyl)piperidine] | 110 ± 5.4% | 863 nM | – | – | –
CNc1cccc(S(=O)(=O)N2CCN(S(=O)(=O)c3ccc4c(c3)OCCO4)CC2)c1 [Compound 142] | – | 290 nM | – | 67.00% | –
Cc1cc2c(s1)c1cnn(Cc3ccccc3Cl)c(=O)c1n2C [Compound 106, 2,4-Methyl-6-[(2-chlorophenyl)methyl]-4H-thieno[3,2-b]pyrrole[3,2-d]pyridazinone] | 95.6 ± 10% | 298 ± 140 nM | – | – | –
Cc1cc2c(s1)c1cnn(Cc3ccc(C)c(F)c3F)c(=O)c1n2C [Compound 119, 2,4-Methyl-6-[(4-methyl-2,3-fluorophenyl)methyl]-4H-thieno[3,2-b]pyrrole[3,2-d]pyridazinone] | – | 108 ± 30 nM | – | 80.5 ± 5.8% | –
O=S(=O)(NC1CCN(S(=O)(=O)c2c(F)cccc2F)C1)c1ccc2c(c1)OCCO2 (stereo not drawn) [Compound 41, N-(1-(2,6-difluorophenylsulfonyl)pyrrolidin-3-yl)-2,3-dihydrobenzo[b][1,4]dioxine-6-sulfonamide] | 82.4 ± 18% | > 15000 nM | – | – | –
CC(O)c1cc2c(s1)c1cnn(Cc3ccccc3F)c(=O)c1n2C (stereo not drawn) [Compound 88] | – | 136 ± 10 nM | – | 119.7 ± 2.6% | –
Cc1cc2c(s1)c1cnn(Cc3ccccc3F)c(=O)c1n2C [Compound 66, 2,4-Methyl-6-[(2-fluorophenyl)methyl]-4H-thieno[3,2-b]pyrrole[3,2-d]pyridazinone] | 122 ± 6.1% | 63 ± 20 nM | – | – | –
Cn1ccc2cc(S(=O)(=O)N3CCN(S(=O)(=O)c4c(F)cccc4F)CC3)ccc21 [Compound 28, 5-(4-(2,6-difluorophenylsulfonyl)piperazin-1-ylsulfonyl)-1-methyl-1H-indole] | 91.1 ± 4.7% | 387 nM | – | – | –
CCNc1cccc(S(=O)(=O)N2CCN(S(=O)(=O)c3ccc4c(c3)OCCO4)CC2)c1 [Compound 136] | – | 81 nM | – | 63.00% | –
O=S(=O)(NCCCCCNS(=O)(=O)c1c(F)cccc1F)c1ccc2c(c1)OCCO2 [Compound 35, N-(5-(2,6-difluorophenylsulfonamido)pentyl)-2,3-dihydrobenzo[b][1,4]dioxine-6-sulfonamide] | 114 ± 1.4% | 2330 ± 160 nM | – | – | –
COc1ccc(S(=O)(=O)N2CCN(S(=O)(=O)c3ccc(OC)cc3)CC2)cc1 [Compound 3, 1,4-bis(4-methoxyphenylsulfonyl)piperazine] | 87.6 ± 16.2% | 171 nM | – | – | –
O=S(=O)(NCCNS(=O)(=O)c1c(F)cccc1F)c1ccc2c(c1)OCCO2 [Compound 32, N-(2-(2,6-difluorophenylsulfonamido)ethyl)-2,3-dihydrobenzo[b][1,4]dioxine-6-sulfonamide] | 60.3 ± 20.6% | – | – | – | –
Cn1c2cc(B(O)O)sc2c2cnn(Cc3ccccc3F)c(=O)c21 [Compound 86, 4-Methyl-6-[(2-fluorophenyl)methyl]-4,1-thieno[3,2-b]pyrrole[3,2-d]pyridazinone, 2-ylboronic acid] | 101 ± 1.4% | – | – | – | –
C[C@H]1CN(S(=O)(=O)c2ccc3c(c2)OCCO3)CCN1S(=O)(=O)c1c(F)cccc1F [Compound 48, (S)-1-(2,6-difluorophenylsulfonyl)-4-(2,3-dihydrobenzo[b][1,4]dioxin-6-ylsulfonyl)-2-methylpiperazine] | 108 ± 8.4% | 2960 ± 200 nM | – | – | –
O=S(=O)(NCC1CN(S(=O)(=O)c2ccc3c(c2)OCCO3)C1)c1c(F)cccc1F [Compound 44, N-((1-(2,3-dihydrobenzo[b][1,4]dioxin-6-ylsulfonyl)azetidin-3-yl)methyl)-2,6-difluorobenzenesulfonamide] | 108 ± 5.3% | 3050 ± 200 nM | – | – | –
Cc1cc2c(s1)c1cnn(Cc3ccc(F)cc3)c(=O)c1n2C [Compound 105, 2,4-Methyl-6-[(4-fluorophenyl)methyl]-4H-thieno[3,2-b]pyrrole[3,2-d]pyridazinone] | 102 ± 8.9% | 57 ± 20 nM | – | – | –
CCCCCn1ncc2c3sc(C)cc3n(C)c2c1=O [Compound 102, 2,4-Methyl-6-pentyl-4H-thieno[3,2-b]pyrrole[3,2-d]pyridazinone] | – | – | marked loss of potency | – | –
O=S(=O)(NCCCNS(=O)(=O)c1c(F)cccc1F)c1ccc2c(c1)OCCO2 [Compound 33, N-(3-(2,6-difluorophenylsulfonamido)propyl)-2,3-dihydrobenzo[b][1,4]dioxine-6-sulfonamide] | 106 ± 5.1% | 3850 ± 530 nM | – | – | –
O=S(=O)(NCCCCNS(=O)(=O)c1c(F)cccc1F)c1ccc2c(c1)OCCO2 [Compound 34, N-(4-(2,6-difluorophenylsulfonamido)butyl)-2,3-dihydrobenzo[b][1,4]dioxine-6-sulfonamide] | 113 ± 14.6% | 7970 ± 4050 nM | – | – | –
O=S(=O)(c1ccc2c(c1)OCCO2)N1CCN(S(=O)(=O)c2c(F)cccc2F)CC1 [Compound 9, 1-(2,6-difluorophenylsulfonyl)-4-(2,3-dihydrobenzo[b][1,4]dioxin-6-ylsulfonyl)piperazine] | 94.4 ± 2.8% | – | – | – | 65 ± 25 nM
COc1cccc(S(=O)(=O)N2CCN(S(=O)(=O)c3ccc4c(c3)OCCO4)CC2)c1 [Compound 17, 1-(2,3-dihydrobenzo[b][1,4]dioxin-6-ylsulfonyl)-4-(3-methoxyphenylsulfonyl)piperazine] | 90 ± 4.5% | 113 nM | – | – | –
COc1cc(F)c(S(=O)(=O)N2CCN(S(=O)(=O)c3ccc4c(c3)OCCO4)CC2)c(F)c1 [Compound 11, 1-(2,6-difluoro-4-methoxyphenylsulfonyl)-4-(2,3-dihydrobenzo[b][1,4]dioxin-6-ylsulfonyl)piperazine] | 91.8 ± 9.6% | 28 nM | – | – | –
Cn1c2cc([N+](=O)[O-])sc2c2cnn(Cc3ccccc3F)c(=O)c21 [Compound 80, 2-Nitro-4-methyl-6-[(2-fluorophenyl)methyl]-4H-thieno[3,2-b]pyrrole[3,2-d]pyridazinone] | – | 18 ± 10 nM | – | – | –
